Measured values: US20060110401A1, “Mixture of peptides from c and ns3 proteins of the hepatitis c virus and applications thereof” (priority 2002, published 2006)
Like-named read-outs stand apart in the source and are kept apart here. Residues, ends and D or L forms follow the SMILES beside them.

Assays:
[1] = molecular target: HLA-DP402 (DPB1*0402) (Homo sapiens, UniProt P04440+P20036, A65V/A84D/A85E/L207M); experiment: biochemical; assay type: binding; settings: DP*0402; read-out: binds with good affinity to DP402
[2] = molecular target: HLA-DR11 (DRB1*1101) (Homo sapiens, UniProt P01903+P01911, A100R/A169T/A87E/I96F/K41T/L162R/M171V/P40S/Q125H/Q178H/Q39Y/Q99D/R42S/S66Y/T262R/V115G/W38E); experiment: biochemical; assay type: binding; settings: read-out: binds with good affinity to DR11
[3] = tested on: DR7; experiment: DR7
[4] = molecular target: HLA-DR7 (DRB1*0701) (Homo sapiens, UniProt P01903+P01911, A100R/A102G/A103Q/D57E/D86V/E43K/F76Y/K127E/L162R/M171V/P40G/Q125H/Q99D/R33Q/R42Y/R54Q/S133A/S66F/T210M/V115G/Y107V/Y59L/Y89S); experiment: biochemical; assay type: binding; settings: read-out: binds with good affinity to DR7
[5] = molecular target: HLA-DR13 (DRB1*1301) (Homo sapiens, UniProt P01903+P01911, A100E/A169T/K41T/L162R/M171V/P40S/Q125H/Q178H/Q39Y/Q99D/R42S/S66N/T262R/W38E/Y61H); experiment: biochemical; assay type: binding; settings: read-out: binds with good affinity to DR13
[6] = tested on: DR3; experiment: DR3
Description: (§1) Table printed on a drawing sheet, Figure 2
Where the first naming reader finds the target: head: DR3

[7] = tested on: DRB3; experiment: DRB3
[8] = molecular target: T1, HLA-DRB5 (DRB5*0101) (Homo sapiens, UniProt P01903+Q30154); experiment: biochemical; assay type: binding; settings: read-out: binds with good affinity to DRB5
T1 construct: endogenous in cells; host or cells: homozygous EBV-transformed human B lymphocyte lines; immunopurified with antibody L243

[9] = molecular target: T2, HLA-DR15 (DRB1*1501) (Homo sapiens, UniProt P01903+P01911); experiment: biochemical; assay type: binding; settings: DRB1*1501; read-out: binds with good affinity to DR15
T2 construct: endogenous in cells; host or cells: homozygous EBV-transformed human B lymphocyte lines; immunopurified with antibody L243

[10] = tested on: DR4; experiment: DR4
[11] = tested on: DRB4; experiment: DRB4
Description: as §1
Where the first naming reader finds the target: head: DRB4

[12] = tested on: DP401; experiment: DP401
[13] = molecular target: T3, HLA-DR1 (DRB1*0101) (Homo sapiens, UniProt P01903+P01911, A100R/D57E/F55L/F60I/F76Y/I96L/L162R/M171V/P40L/Q125E/R42F/V115G/Y59C); experiment: biochemical; assay type: binding; settings: for IC50: DRB1*0101
T3 construct: endogenous in cells; host or cells: homozygous EBV-transformed human B lymphocyte lines; immunopurified with antibody L243

[14] = tested on: DR15; experiment: DR15
[15] = tested on: DR13; experiment: DR13
Description: as §1
Where the first naming reader finds the target: head: DR13

[16] = tested on: DRB5; experiment: DRB5
[17] = tested on: DR11; experiment: DR11
Description: as §1
Where the first naming reader finds the target: head: DR11

[18] = molecular target: T4, HLA-DR4 (DRB1*0401) (Homo sapiens, UniProt P01903+P01911, A100K/A169T/F76Y/I96L/K127E/L162R/M171V/N62H/P40V/Q125Y/R42H/S133A/S149N/S66Y/V115G/V209L/W38E); experiment: biochemical; assay type: binding; settings: read-out: binds with good affinity to DR4
T4 construct: endogenous in cells; host or cells: homozygous EBV-transformed human B lymphocyte lines; immunopurified with antibody L243

[19] = tested on: DP402; experiment: DP402
[20] = tested on: T lymphocytes derived from PBMCs from patients chronically infected with HCV; assay type: cell-based, human; settings: supernatant 48 h, —: not detected
[21] = molecular target: T5, HLA-DRB4 (DRB4*0101) (Homo sapiens, UniProt P01903+P13762, G164S); experiment: biochemical; assay type: binding; settings: read-out: binds with good affinity to DRB4
T5 construct: endogenous in cells; host or cells: homozygous EBV-transformed human B lymphocyte lines; immunopurified with antibody L243

[22] = molecular target: T6, HLA-DR3 (DRB1*0301) (Homo sapiens, UniProt P01903+P01911, A100K/A102G/A103R/A169T/F55Y/I96L/K41T/L162R/M171V/P40S/Q125H/Q178H/Q39Y/R42S/S66N/T106N/T262R/W38E/Y61H); experiment: biochemical; assay type: binding; settings: read-out: binds with good affinity to DR3
T6 construct: endogenous in cells; host or cells: homozygous EBV-transformed human B lymphocyte lines; immunopurified with antibody L243

[23] = molecular target: T7, HLA-DRB3 (DRB3*0101) (Homo sapiens, UniProt P01903+P79483); experiment: HLA II/peptide binding assay, HLA-DRB3; settings: read-out: binds with good affinity to DRB3
T7 construct: endogenous in cells; host or cells: homozygous EBV-transformed human B lymphocyte lines; immunopurified with antibody L243

[24] = tested on: CD4+ T lymphocyte lines derived from a seronegative individual; experiment: IFN-γ ELISPOT after in vitro immunization; assay type: cell-based, human; settings: after 4 restimulations; for response of line P014/A (T lymphocytes secreting IFN-γ): FIG. 5A; for response of line P014/C (T lymphocytes secreting IFN-γ): FIG. 5C
Experimental: The ability of the peptides having good affinity for the HLA II molecules to induce stimulation of specific T lymphocytes in vitro was evaluated using blood samples from individuals seronegative for HCV. This involves evaluating the ability to recruit CD4+ precursor lymphocytes although they are, in a naïve individual, at very low frequency, i.e. to carry out an immunization in vitro by means of these peptides.
Peripheral blood mononuclear cells (PBMCs) were separated on a Ficoll gradient. The PBMCs were then cultured in AIM V medium (Life Technologies) and incubated in flasks, in an incubator at 37° C. in the presence of 5% of CO2. After overnight incubation, the non-adherent cells were recovered and loaded onto an LS+column (Miltenyi), and the CD4+ T lymphocytes thus purified were then frozen. The adherent cells were incubated for 5 days in AIM V medium containing 1000 U/ml of GM-CSF and 1000 U/ml of IL-4, and the cells that had differentiated into dendritic cells were then cultured for 2 days in the presence of 1 μg/ml of LPS, 1000 U/ml of IL-4 and 1000 U/ml of GM-CSF, so as to induce their maturation.
The mature dendritic cells (100 000 cells/well) were then incubated with a mixture of peptides (10 μg of each peptide), for 5 hours at 37° C. The mature dendritic cells were subsequently washed and then incubated, in the presence of the CD4+ T lymphocytes (100 000 cells/well) thawed beforehand, in medium containing 1000 U/ml of IL-6 and 10 ng/ml of IL-12. After 7 days, the culture was restimulated a first time by means of mature dendritic cells that had been thawed and loaded with the mixture of peptides beforehand, in medium containing IL-2 (10 U/ml) and IL-7 (5 ng/ml). 7 days later, the culture was restimulated, in a similar manner, in a medium containing no IL-2. After two further stimulations, under the above conditions, the cells were assayed by ELISPOT, in the following way:
[…]. After washing with PBS buffer and then with PBS/0.05% Tween, 100 μl of biotin-conjugated anti-IFNγ secondary antibody (7-B6-1-biotin, Mabtech), diluted to 1 μg/ml in PBS containing 0.05% Tween 20 and 1% BSA, were added to each well. After incubation for one hour, the plates were washed again, and incubated with 100 μl/well of Extravidin-AKP (No. 2636, SIGMA), diluted to 1/5000 in PBS containing 0.05% Tween 20 and 1% BSA. The immunoenzymatic reaction was then visualized by means of the kit No. 170-6432 (Biorad).

[25] = read-out: binds with good affinity to DR1

Chain of HLA-DR11 (DRB1*1101) (P01903 26-254 limits assumed, other chains not shown): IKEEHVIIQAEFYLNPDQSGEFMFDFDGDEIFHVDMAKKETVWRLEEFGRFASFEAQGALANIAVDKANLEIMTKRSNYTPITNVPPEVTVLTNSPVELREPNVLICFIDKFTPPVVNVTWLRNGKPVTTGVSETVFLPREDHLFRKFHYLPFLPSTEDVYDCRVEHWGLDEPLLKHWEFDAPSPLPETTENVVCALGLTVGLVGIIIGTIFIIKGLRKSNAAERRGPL

Compound | IC50 [2] [nM] | IC50 [3] [nM] | IC50 [4] [nM] | IC50 [7] [nM] | IC50 [8] [nM] | IC50 [9] [nM] | IC50 [12] [nM] | IC50 [13, 25] [nM] | IC50 [14] [nM] | IC50 [16] [nM] | IC50 [17] [nM] | also measured
CC[C@H](C)[C@H](NC(=O)[C@H](CCC(N)=O)NC(=O)CNC(=O)CNC(=O)CNC(=O)[C@@H]1CCCN1C(=O)[C@H](Cc1ccccc1)NC(=O)[C@H](CCCCN)NC(=O)[C@@H](NC(=O)[C@H](CC(=O)O)NC(=O)[C@H](CCC(N)=O)NC(=O)[C@@H]1CCCN1)C(C)C)C(=O)N[C@H](C(=O)NCC(=O)NCC(=O)N[C@H](C(=O)N[C@@H](Cc1ccc(O)cc1)C(=O)N[C@@H](CC(C)C)C(=O)N[C@@H](CC(C)C)C(=O)N1CCC[C@H]1C(=O)N[C@@H](CCCNC(=N)N)C(=O)N[C@@H](CCCNC(=N)N)C(=O)NCC(=O)N1CCC[C@H]1C(=O)N[C@@H](CCCNC(=N)N)C(=O)N[C@@H](CC(C)C)C(=O)NCC(=O)N[C@H](C(=O)N[C@@H](CCCNC(=N)N)C(=O)O)C(C)C)C(C)C)C(C)C [1C 19-47] | < 1000 | 483 | < 1000 | > 100000 | < 1000 | < 1000 | 4520 | < 1000 | 158 | 9 | 58 | IC50 [1]: < 1000 nM; IC50 [5]: < 1000 nM; IC50 [6]: > 100000 nM; IC50 [10]: 70000 nM; IC50 [11]: 6000 nM; IC50 [15]: 288 nM
CC[C@H](C)[C@H](NC(=O)[C@H](CCC(=O)O)NC(=O)[C@H](CCCNC(=N)N)NC(=O)CN)C(=O)N[C@@H](CC(C)C)C(=O)N[C@@H](CC(C)C)C(=O)NCC(=O)N1CCC[C@H]1C(=O)N[C@@H](C)C(=O)N[C@@H](CC(=O)O)C(=O)NCC(=O)N[C@@H](CCSC)C(=O)N[C@H](C(=O)N[C@@H](CO)C(=O)N[C@@H](CCCCN)C(=O)NCC(=O)N[C@@H](Cc1c[nH]c2ccccc12)C(=O)N[C@@H](CCCNC(=N)N)C(=O)N[C@@H](CC(C)C)C(=O)N[C@@H](CC(C)C)C(=O)N[C@@H](C)C(=O)N1CCC[C@H]1C(=O)N[C@H](C(=O)N[C@H](C(=O)N[C@@H](C)C(=O)N[C@@H](Cc1ccc(O)cc1)C(=O)N[C@@H](C)C(=O)N[C@@H](CCC(N)=O)C(=O)N[C@@H](CCC(N)=O)C(=O)N[C@H](C(=O)N[C@@H](CCCNC(=N)N)C(=O)O)[C@@H](C)O)[C@@H](C)O)[C@@H](C)CC)C(C)C [8N 1007-1037] | < 1000 | 88 | < 1000 | 15000 | < 1000 | < 1000 | 7200 | < 1000 | 30 | 2 | 1 | IC50 [1]: < 1000 nM; IC50 [18]: < 1000 nM; IC50 [5]: < 1000 nM; IC50 [19]: 881 nM; IC50 [6]: 200 nM; IC50 [11]: 60 nM; IL10 ([20]; patient 067): 43 pg/mL; IL10 ([20]; patient 078): 41 pg/mL; IC50 [21]: < 1000 nM; IC50 ([13]; competition with biotinylated tracer HA 306-318, read-out: IC50, binding to HLA-DR1): 2 nM; affinity for HLA-DR1 (in words) ([13]; legend of FIG. 4): high affinity; IC50 [22]: < 1000 nM
CC[C@H](C)[C@H](NC(=O)CNC(=O)[C@@H]1CCCN1C(=O)[C@@H](N)CCCCN)C(=O)N[C@@H](Cc1ccc(O)cc1)C(=O)N[C@@H](CCCNC(=N)N)C(=O)N[C@@H](Cc1ccccc1)C(=O)N[C@H](C(=O)N[C@@H](C)C(=O)N1CCC[C@H]1C(=O)NCC(=O)N[C@@H](CCC(=O)O)C(=O)N[C@@H](CCCNC(=N)N)C(=O)N1CCC[C@H]1C(=O)N[C@@H](CO)C(=O)NCC(=O)N[C@@H](CCSC)C(=O)N[C@@H](Cc1ccccc1)C(=O)N[C@@H](CC(=O)O)C(=O)O)C(C)C [27N 1495-1513] (H-KPGIYRFVAPGERPSGMFD-OH; N-terminus and C-terminus assumed) | < 1000 | 313 | < 1000 | 40000 | < 1000 | < 1000 | > 100000 | < 1000 | 150 | 2 | 175 | IC50 [19]: > 100000 nM; IC50 [21]: < 1000 nM; IC50 [23]: < 1000 nM
GIFRAAVCTRGVAKA [15N 1178-1192] |  |  |  |  |  |  |  |  |  |  |  | response of line P014/A (T lymphocytes secreting IFN-γ) [24]: responds; response of line P014/C (T lymphocytes secreting IFN-γ) [24]: responds
KVLVLNPSVAATLGF [18N 1250-1264] |  |  |  |  |  |  |  |  |  |  |  | response of line P014/A (T lymphocytes secreting IFN-γ) [24]: responds
RLRAYMNTPGLPVAQ [28N 1538-1552] |  |  |  |  |  |  |  |  |  |  |  | response of line P014/C (T lymphocytes secreting IFN-γ) [24]: responds
VSKGWRLLAPITAYA [8N 1019-1033] |  |  |  |  |  |  |  |  |  |  |  | response of line P014/B (T lymphocytes secreting IFN-γ) ([24]; line P014/B, FIG. 5B): responds
